Source: US10196345B2, “MAO-B selective inhibitor compounds, pharmaceutical compositions thereof and uses thereof” (The University of British Columbia, priority 2013, dated 2019)
pIC50: −log10 of the molar value. Counter-ions that a name gives are not always drawn. Like-named read-outs stand apart in the source and are kept apart here.

Legend:
recombinant human MAO-B = biological target: T1, recombinant human MAO-B (Homo sapiens, UniProt P27338); assay: Cell-free Fluorescent Monoamine Oxidase A&B Detection Assay, MAO-B; type: biochemical; conditions: for pIC50: read-out: IC50 MAO-B
T1 sequence (P27338 1-520): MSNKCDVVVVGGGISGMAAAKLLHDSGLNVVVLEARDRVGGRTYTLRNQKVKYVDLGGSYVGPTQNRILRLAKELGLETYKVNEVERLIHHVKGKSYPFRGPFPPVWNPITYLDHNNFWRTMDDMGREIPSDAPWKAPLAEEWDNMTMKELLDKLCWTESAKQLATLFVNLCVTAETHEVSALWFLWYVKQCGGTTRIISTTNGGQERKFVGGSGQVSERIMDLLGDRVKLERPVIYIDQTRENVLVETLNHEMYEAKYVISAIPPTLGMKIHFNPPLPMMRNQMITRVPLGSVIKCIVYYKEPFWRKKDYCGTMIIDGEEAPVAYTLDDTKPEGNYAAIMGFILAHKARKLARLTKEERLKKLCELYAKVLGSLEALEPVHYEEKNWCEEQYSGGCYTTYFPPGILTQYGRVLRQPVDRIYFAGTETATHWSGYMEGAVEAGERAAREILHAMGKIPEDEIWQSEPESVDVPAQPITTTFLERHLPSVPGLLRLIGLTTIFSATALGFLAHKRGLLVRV
Experimental: (§1) The assay was repeated to confirm data.
(§2) MAO B specific inhibitory activity and selectivity over MAO A is assayed using a commercial kit [Fluoro MAO A and B detection kit (Cell Technology Inc™)]. This kit uses a non-fluorescent detection reagent to measure H2O2 released from the conversion of an MAO A and MAO B substrate specific to its aldehyde. Furthermore, H2O2 oxidizes the detection reagent in a 1:1 stoichiometry to produce a fluorescent product (resorufin). […] This information is then provided to the medicinal chemists to help direct synthesis of subsequent iterations.

recombinant human MAO-A = biological target: T2, recombinant human MAO-A (Homo sapiens, UniProt P21397); assay: Cell-free Fluorescent Monoamine Oxidase A&B Detection Assay, MAO-A; type: biochemical; conditions: for pIC50: read-out: IC50 MAO-A
T2 sequence (P21397 1-527): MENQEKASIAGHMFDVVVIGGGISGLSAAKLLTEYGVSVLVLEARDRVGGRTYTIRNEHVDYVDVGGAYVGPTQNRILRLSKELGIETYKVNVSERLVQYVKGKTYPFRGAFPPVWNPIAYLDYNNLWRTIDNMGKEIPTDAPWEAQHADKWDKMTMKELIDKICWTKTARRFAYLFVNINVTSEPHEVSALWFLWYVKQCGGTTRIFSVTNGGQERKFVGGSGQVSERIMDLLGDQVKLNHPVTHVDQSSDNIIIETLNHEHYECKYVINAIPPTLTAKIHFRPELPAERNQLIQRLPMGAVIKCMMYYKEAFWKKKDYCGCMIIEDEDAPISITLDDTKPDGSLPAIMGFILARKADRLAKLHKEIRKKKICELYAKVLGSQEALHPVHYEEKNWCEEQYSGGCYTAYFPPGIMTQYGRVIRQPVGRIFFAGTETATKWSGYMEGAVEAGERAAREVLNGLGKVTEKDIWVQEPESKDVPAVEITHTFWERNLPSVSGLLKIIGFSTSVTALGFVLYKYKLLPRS
Experimental: as §1, §2

[1] = cell-free, recombinant human MAO-A
[2] = cell-free, recombinant human MAO-A, read-out: IC90 MAO-A

Structure (SMILES)	IC50 MAO-A (μM) (recombinant human MAO-A; [1])	IC90 (recombinant human MAO-B)	pIC50 (recombinant human MAO-B)	further results
O=C(O)c1coc(Cc2ccc(OCc3ccccc3)cc2)n1 [PS-AD0031]	Does not			IC90 MAO-B (μM) (recombinant human MAO-B): Does not
C[C@H](Cc1ccc(OCc2cc(Cl)ccc2Cl)cc1)N(C)CC(=O)O.Cl [PS-AD0064, (R)—N-(1-(4-((2,5-dichlorobenzyl)oxy)phenyl)propan-2-yl)-N-methylglycine hydrochloride]	Does not	25.8 µM	5.90	
C[C@H](Cc1ccc(OCc2ccc(C(=O)O)cc2)cc1)N(C)CC(=O)O.Cl [PS-AD0065 B, (R)-4-((4-(2-((carboxymethyl)(methyl)amino)propyl)phenoxy)methyl)benzoic acid hydrochloride]	Does not	149 µM	5.00	
C[C@H](Cc1ccc(OCc2ccc(C#N)cc2)cc1)N(C)CC(=O)O.Cl [PS-AD0065, (R)—N-(1-(4-((4-cyanobenzyl)oxy)phenyl)propan-2-yl)-N-methylglycine hydrochloride]	Does not	81.1 µM	5.48	
C[C@H](Cc1ccc(OCc2ccncc2)cc1)N(C)CC(=O)O.Cl.Cl [PS-AD0068, (R)—N-methyl-N-(1-(4-(pyridin-4-ylmethoxy)phenyl)propan-2-yl)glycine hydrochloride]	Does not	506 µM	4.70	
CN(CC(=O)O)[C@H](CCl)Cc1ccc(OCc2ccccc2)cc1 [PS-AD0095, (S)—N-(1-(4-(benzyloxy)phenyl)-3-chloropropan-2-yl)-N-methylglycine]	Does not	13.4 µM	5.85	
CN(CC(=O)O)[C@H](CCO)Cc1ccc(OCc2ccccc2)cc1.Cl [PS-AD0179, (S)—N-(1-(4-(benzyloxy)phenyl)-4-hydroxybutan-2-yl)-N-methylglycine]	Does not	167 µM	5.11	
CN(CC(=O)O)[C@H](CC#N)Cc1ccc(OCc2ccccc2)cc1.Cl [PS-AD0186, (S)—N-(1-(4-(benzyloxy)phenyl)-3-cyanopropan-2-yl)-N-methylglycine]	Does not	4.44 µM	6.25	
C[C@H](Cc1ccc(OCc2cnc3ncccn23)cc1)N(C)CC(=O)O.Cl [PS-AD0223]	Does not			IC90 MAO-B (μM) (recombinant human MAO-B): Does not
C[C@H](Cc1ccc(Oc2ccccc2)cc1)N(C)CC(=O)O [PS-RG0008, N—((R)-(1-(4-(phenoxy)phenyl)propan-2-yl)(methyl))glycine hydrochloride]	Does not	331 µM	4.16	
CN(CC(=O)O)Cc1ccccc1.Cl [PS-RG0019]	Does not			IC90 MAO-B (μM) (recombinant human MAO-B): Does not
CN(CCc1ccccc1)CC(=O)O.Cl [PS-RG0020]	Does not			IC90 MAO-B (μM) (recombinant human MAO-B): Does not
C[C@H](Cc1ccc(OCc2ccccc2)cc1)N(C)CC(=O)O [PS-RG0031A, N—((R)-(1-(4-(benzyloxy)phenyl)propan-2-yl)(methyl))glycine hydrochloride]	Does not	30.5 µM	6.04	
CN(CCc1ccc(Oc2ccccc2)cc1)CC(=O)O.Cl [PS-RG0058]	Does not			IC90 MAO-B (μM) (recombinant human MAO-B): Does not
C#CCN(C)[C@H](C)Cc1ccc(OCc2ccccc2)cc1 [PS-RG0061]		0.023 µM	8.34	IC50 (recombinant human MAO-A; IC50 MAO-A (μM), cell-free, recombinant human MAO-A): 0.163 µM; IC90 (recombinant human MAO-A; read-out: IC90 MAO-A (μM)): 1.05 µM
CN(CCc1ccc(OCc2ccccc2)cc1)CC(=O)O.Cl [PS-RG0064, N,N-(4-(Benzyloxy)phenethyl)(methyl)glycine hydrochloride]	Does not	252 µM	5.14	
C#CCN(C)CCc1ccccc1 [PS-RG0070]		0.0306 µM		IC50 (recombinant human MAO-B; IC50 MAO-B (μM)): 0.0107 µM; pIC50 (recombinant human MAO-A; [1]): 4.90; IC90 (recombinant human MAO-A; [2]): 126 µM

Structure (SMILES)	IC50 MAO-A (μM) (recombinant human MAO-A; [1])	IC90 (recombinant human MAO-B)	pIC50 (recombinant human MAO-B)	further results
CN(CC(=O)O)C(=O)C=C1COc2cc(Oc3ccccc3)ccc21 [PS-RG0080]	Does not			IC90 MAO-B (μM) (recombinant human MAO-B): Does not
CN(CC(=O)O)Cc1cc(=O)oc2cc(Oc3ccccc3)ccc12.Cl [PS-RG0097]	Does not			IC90 MAO-B (μM) (recombinant human MAO-B): Does not
CN(CC(=O)O)Cc1cc(=O)oc2cc(OCc3ccccc3)ccc12.Cl [PS-RG0098, N-((7-(benzyloxy)-2-oxo-2H-chromen-4-yl)methyl)-N-methylglycine hydrochloride]	Does not	4.1 µM	6.10	
C[C@H](Cc1ccc(OCc2ccccc2Cl)cc1)N(C)CC(=O)O [PS-RG0121, N—((R)-(1-(4-(2-chlorobenzyloxy)phenyl)propan-2-yl)(methyl))glycine hydrochloride]	Does not	8.13 µM	6.18	
COC(=O)[C@H](Cc1ccc(OCc2cccc(Cl)c2)cc1)N(C)CC(=O)O [PS-RG0122, N-Carboxymethyl-N-methyl-O-3-chlorobenzyloxytyrosine methyl ester hydrochloride]	Does not	19.1 µM	5.84	
COC(=O)[C@H](Cc1ccc(OCc2ccccc2)cc1)N(C)CC(=O)O.Cl [PS-RG0123, N-Carboxymethyl)-N-(methyl-O-benzyloxytyrosine methyl ester hydrochloride]	Does not	354 µM	5.00	
C[C@H](Cc1ccc(OCc2ccccc2C#N)cc1)N(C)CC(=O)O.Cl [PS-RG0171, (R)—N-(1-(4-((2-cyanobenzyl)oxy)phenyl)propan-2-yl)-N-methylglycine hydrochloride]	Does not	1080 µM	4.89	
C[C@H](Cc1ccc(OCc2cccc(C#N)c2)cc1)N(C)CC(=O)O.Cl [PS-RG0172, (R)—N-(1-(4-((3-cyanobenzyl)oxy)phenyl)propan-2-yl)-N-methylglycine hydrochloride]	Does not	1840 µM	4.71	
C[C@H](Cc1ccc(OCc2cccc(F)c2)cc1)N(C)CC(=O)O.Cl [PS-RG0173, (R)—N-(1-(4-((3-fluorobenzyl)oxy)phenyl)propan-2-yl)-N-methylglycine hydrochloride]	Does not	13.5 µM	6.11	
C[C@H](Cc1ccc(OCc2cc(F)cc(F)c2)cc1)N(C)CC(=O)O.Cl [PS-RG0174, (R)—N-(1-(4-((3,5-difluorobenzyl)oxy)phenyl)propan-2-yl)-N-methylglycine hydrochloride]	Does not	6.7 µM	6.10	
CN(CC(=O)O)[C@H](CO)Cc1ccc(OCc2ccccc2)cc1 [PS-RG0188, (S)—N-(1-(4-(benzyloxy)phenyl)-3-hydroxypropan-2-yl)-N-methylglycine]	Does not	19.7 µM	6.13	
O=C([O-])C1=N[C@@H](Cc2ccccc2)CO1.[Na+] [PS-RG0200]	Does not			IC90 MAO-B (μM) (recombinant human MAO-B): Does not
CN(CC(=O)O)c1ccc(CCOCc2ccccc2)cc1.Cl [PS-RG0210]	Does not	708 µM	4.63	
C[C@H](Cc1ccc(OCc2ccccn2)cc1)N(C)CC(=O)O.Cl.Cl [PS-RG0217, (R)—N-methyl-N-(1-(4-(pyridin-2-ylmethoxy)phenyl)propan-2-yl)glycine hydrochloride]	Does not	577 µM	4.58	
C[C@H](Cc1ccc(OCc2cccnc2)cc1)N(C)CC(=O)O.Cl.Cl [PS-RG0218]	Does not			IC90 MAO-B (μM) (recombinant human MAO-B): Does not
C[C@H](Cc1ccc(OCC(=O)O)cc1)N(C)CC(=O)O.Cl [PS-RG0219]	Does not			IC90 MAO-B (μM) (recombinant human MAO-B): Does not
C[C@H](Cc1ccc(OCc2ccc(Cl)cc2)cc1)N(C)CC(=O)O [PS-RG0226, (R)—N-(1-(4-((4-chlorobenzyl)oxy)phenyl)propan-2-yl)-N-methylglycine hydrochloride]		3.42 µM	6.30	pIC50 (recombinant human MAO-A; [1]): 3.70; IC90 (recombinant human MAO-A; [2]): 1260 µM
